The values below come from patent US20110184057A1, “PARENTERAL TREATMENT WITH STATINS” (priority 2008, published 2011).

The nature of this series: Plasma lovastatin levels in rats after a single oral or dermal dose, by HMG-CoA reductase inhibition assay. The format is in vivo, rat. To be noted: intact rats, single dose, 1, 3, 6 and 24 hours; dermal in 100% DMSO vs oral gavage in 0.5% methylcellulose. As to the method:
For oral administration, a suspension of lovastatin was prepared in 0.5% methylcellulose and administered by gavage.

Structures are written as SMILES.

For the compound `CC[C@H](C)C(=O)O[C@H]1C[C@@H](C)C=C2C=C[C@H](C)[C@H](CC[C@@H]3C[C@@H](O)CC(=O)O3)[C@H]21` [lovastatin], the “plasma concentrations of lovastatin, dermal versus oral” value was “greater, less variable and more prolonged than when the drug was given orally”.
